We go through seven compounds from PubChem BioAssay (NCI).

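Values below derive from 48-hour exposures of cells grown in 96-well plates, with endpoints linearly interpolated between the two concentrations bracketing the appropriate inhibition level. GI50 is the concentration that inhibits growth by half. TGI is the concentration that stops growth completely.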 A value given as a limit tells only on which side of the number the result lay.

Test systems include CCRF-CEM leukemia; EKVX NSCLC; SK-OV-3 ovarian; SF-295 CNS; TK-10 renal; MALME-3M melanoma; SR leukemia; MDA-MB-231 breast; T-47D breast; ACHN renal.
Holding throughout (experiment): NCI anticancer screen, dose series, 48 h

Consider `N#[N+]c1ccc(Nc2ccccc2)cc1`, for which the GI50 in the assay on CCRF-CEM leukemia, in the assay on EKVX NSCLC, in the assay with SK-OV-3 ovarian, in the assay on SF-295 CNS, in the assay with TK-10 renal and in the assay on MALME-3M melanoma was more than 50 mg/L throughout. Moreover, the GI50 in the assay with SR leukemia, in the assay with MDA-MB-231 breast, with T-47D breast and in the assay on ACHN renal was more than 50 mg/L throughout. Besides, the TGI with CCRF-CEM leukemia, in the assay on EKVX NSCLC, in the assay with SK-OV-3 ovarian, in the assay on SF-295 CNS, in the assay on TK-10 renal and in the assay with MALME-3M melanoma was more than 50 mg/L in each case. The TGI with SR leukemia, with MDA-MB-231 breast, in the assay on T-47D breast and in the assay with ACHN renal was more than 50 mg/L in each case.

As to `O=[N+]([O-])/C=C/c1ccc(Cl)cc1[N+](=O)[O-]`, the GI50 in the assay with CCRF-CEM leukemia is 1.12 µM; in the assay with EKVX NSCLC, 13.1 µM; in the assay with SK-OV-3 ovarian, 12.1 µM; with SF-295 CNS, 6.72 µM; with TK-10 renal, 1.78 µM; in the assay on MALME-3M melanoma it was 4.15 µM. The GI50 with SR leukemia was 1.68 µM; in the assay with MDA-MB-231 breast, 2.33 µM; in the assay on T-47D breast, 2.48 µM; with ACHN renal it was 1.95 µM. Besides, the TGI came to 8.85 µM in the assay on CCRF-CEM leukemia; 35.1 µM in the assay on EKVX NSCLC; 24.5 µM in the assay on SK-OV-3 ovarian; 21.6 µM in the assay on SF-295 CNS; 3.48 µM in the assay on TK-10 renal; 16.7 µM with MALME-3M melanoma. The TGI in the assay on SR leukemia is more than 100 µM; in the assay on MDA-MB-231 breast, 6.46 µM; with T-47D breast, 5.96 µM; in the assay on ACHN renal, 3.79 µM.

Regarding `O=C1Nc2ccc3c(c2/C1=C\c1cc2c(cc1Br)OCO2)OCO3`, the GI50 with CCRF-CEM leukemia was 0.244 µM; with EKVX NSCLC, 0.639 µM; in the assay with SK-OV-3 ovarian, 0.512 µM; in the assay on SF-295 CNS, 0.527 µM; in the assay on TK-10 renal, 1.52 µM; in the assay with MALME-3M melanoma it was 0.423 µM. Also, the GI50 in the assay on SR leukemia was 0.239 µM; with MDA-MB-231 breast it was 0.793 µM; in the assay with T-47D breast, 0.969 µM; in the assay on ACHN renal, 0.689 µM. Besides, the TGI was determined as 3.05 µM with CCRF-CEM leukemia; 8.09 µM in the assay on EKVX NSCLC; 1.89 µM in the assay on SK-OV-3 ovarian; 2.5 µM with SF-295 CNS; 3.84 µM in the assay on TK-10 renal; 4.16 µM in the assay with MALME-3M melanoma. Further, the TGI is more than 30.8 µM in the assay on SR leukemia, 3.27 µM in the assay on MDA-MB-231 breast, 6.58 µM in the assay on T-47D breast and 6.55 µM with ACHN renal.

Take `COc1ccc(C(O)c2cc3c(N)c(C(=O)Nc4cccc(Br)c4C)sc3nc2C)cc1` (stereo not given): the GI50 is 0.139 µM in the assay with CCRF-CEM leukemia; 0.259 µM with EKVX NSCLC; 0.251 µM in the assay on SK-OV-3 ovarian; 0.133 µM in the assay on SF-295 CNS; 4.21 µM with TK-10 renal; 0.199 µM in the assay with MALME-3M melanoma. Moreover, the GI50 in the assay with SR leukemia was 0.125 µM; with MDA-MB-231 breast it was 0.462 µM; in the assay with T-47D breast it was 0.346 µM; with ACHN renal, 0.216 µM. The TGI in the assay with CCRF-CEM leukemia is more than 33.3 µM; in the assay with EKVX NSCLC, more than 33.3 µM; in the assay with SK-OV-3 ovarian, more than 33.3 µM; with SF-295 CNS it was 6.14 µM; in the assay on TK-10 renal, more than 24.4 µM; in the assay on MALME-3M melanoma it was more than 33.3 µM. The TGI with SR leukemia is more than 33.3 µM; in the assay with MDA-MB-231 breast, 8.96 µM; with T-47D breast it was more than 33.3 µM; in the assay on ACHN renal, more than 26.4 µM.

Consider `CC1(C)N=C(N)N=C(N)N1c1cccc(CCc2ccccc2)c1`, for which the GI50 in the assay with CCRF-CEM leukemia is 0.566 µM; with EKVX NSCLC it was 1.1 µM; in the assay on SK-OV-3 ovarian, 5.5 µM; in the assay on SF-295 CNS, 0.604 µM; in the assay on TK-10 renal it was 1.9 µM; in the assay on MALME-3M melanoma it was 1.04 µM. The GI50 in the assay on SR leukemia was 0.282 µM; in the assay with MDA-MB-231 breast it was 4.27 µM; in the assay on T-47D breast it was 2.95 µM; with ACHN renal, 13.4 µM. In addition, the TGI in the assay on CCRF-CEM leukemia is more than 100 µM; in the assay on EKVX NSCLC, more than 100 µM; in the assay with SK-OV-3 ovarian it was more than 100 µM; with SF-295 CNS, more than 100 µM; in the assay with TK-10 renal, more than 100 µM; in the assay with MALME-3M melanoma, more than 68.8 µM. Moreover, the TGI in the assay with SR leukemia is more than 64.3 µM; in the assay on MDA-MB-231 breast, more than 100 µM; in the assay with T-47D breast, more than 100 µM; with ACHN renal, more than 100 µM.

With `COc1cc(NC2CCCCC2O)c2nc(-c3ccc(Cl)cc3)ccc2c1` (stereo not given), the GI50 with CCRF-CEM leukemia is 4.34 µM; in the assay on EKVX NSCLC, 18.1 µM; with SK-OV-3 ovarian, 33.5 µM; with SF-295 CNS, 2.8 µM; in the assay with TK-10 renal, 14.6 µM; in the assay with MALME-3M melanoma, 7.45 µM. Moreover, the GI50 in the assay on SR leukemia was 3.26 µM; in the assay with MDA-MB-231 breast, 4.43 µM; with T-47D breast, 4.9 µM; in the assay with ACHN renal, 8.94 µM. Also, the TGI in the assay on CCRF-CEM leukemia was 68.5 µM; in the assay with EKVX NSCLC it was more than 100 µM; in the assay with SK-OV-3 ovarian, more than 100 µM; with SF-295 CNS it was 12.1 µM; in the assay on TK-10 renal it was more than 100 µM; in the assay with MALME-3M melanoma, 28 µM. The TGI is 32.8 µM with SR leukemia, 57.8 µM in the assay on MDA-MB-231 breast, more than 100 µM in the assay on T-47D breast and more than 100 µM in the assay with ACHN renal.

Turning to `Cc1cc(S(N)(=O)=O)c(S/C(=N\NS(=O)(=O)c2ccccc2)c2ccc(Cl)cc2)cc1Cl`, the GI50 is 99.7 µM with CCRF-CEM leukemia; more than 100 µM in the assay with EKVX NSCLC; more than 100 µM in the assay with SK-OV-3 ovarian; 22.5 µM in the assay with SF-295 CNS; more than 100 µM in the assay on TK-10 renal; 65.4 µM with MALME-3M melanoma. The GI50 in the assay with SR leukemia was 49.2 µM; in the assay on MDA-MB-231 breast, more than 100 µM; in the assay with T-47D breast, more than 100 µM; with ACHN renal it was more than 100 µM. The TGI in the assay on CCRF-CEM leukemia, in the assay with EKVX NSCLC, in the assay with SK-OV-3 ovarian, in the assay on SF-295 CNS, with TK-10 renal and in the assay with MALME-3M melanoma was more than 100 µM in each case. Also, the TGI with SR leukemia, with MDA-MB-231 breast, with T-47D breast and with ACHN renal was more than 100 µM each time.
